Tests used:
NDF Cells = test: NAD Elevation Assay (NAD Cellular Assay), NDF cells; format: cell-based; details: @ 0.25 mM, multiple of NAD level in untreated cells
Experimental: (§1) Compounds were tested in an NAD Cellular Assay according to the following protocol. Jurkat cells (50,000 per in 100 microliters of RPMI media) were added to wells of a 96 well, conical bottomed plate. The cells were allowed to recover for 3 h in culture. A 16 microliter aliquot of a 100 mM compound stock solution was diluted with 784 microliters of medium and 10% FBS to give 800 microliters of a 2 mM compound treatment solution. The compound treatment solution was added to the cells for a final concentration of 1 mM compound (n=6 wells for each compound.) As a parallel control, nicotinamide mononucleotide (NMN) was added to cells at a final concentration of 2 mM (n=6). The plates were incubated for 24 hours, then spun at 1000 rpm for 10 min. The medium was removed, then the cells were washed with fresh PBS and spun again. The PBS medium was removed, then the cells were washed one more time with PBS and spun. The liquid was removed from each well via pipette, avoiding touching the cell pellet. The cells were lysed with 75 microliters of 0.5% DTAB. 25 microliters of the lysate was added to each of two flat bottomed plates. One plate was used for a BCA protein assay (clear), and the other plate was used for the NAD assay (clear bottom, white walled). The NAD concentration in each well was determined using a commercially available assay according to the kit instructions (e.g. Promega NAD/NADH-Glo™ Assay.) The Pierce BCA protein assay was run according to the kit instructions (e.g. ThermoScientific Catalog number 23225). NAD levels were normalized to total protein and reported as a multiple of the NAD level in untreated cells.
Assays with other cell types were run similarly, using the appropriate compound and NMN dilutions. Cell counts were adjusted as necessary to provide a signal within the reading range of the protein and NAD assay kits.

Jurkat cells = test: NAD Elevation Assay (NAD Cellular Assay), Jurkat cells; format: cell-based; details: @ 1 mM, NAD normalized to total protein, multiple of NAD level in untreated cells
Experimental: as §1, with “25 microliters of the lysate was added to each of two flat bottomed plates. One plate was used for a BCA protein assay (clear), and the other plate was used for the NAD assay (clear bottom, white walled).” left out, “NAD levels were normalized to total protein and reported as a multiple of the NAD level in untreated cells.” left out

Row | SMILES | NAD Elevation Assay (NDF Cells) | NAD Elevation Assay (Jurkat cells)
1 | CCCn1cnc2c1c(=O)n(CCOC(=O)c1ccc[n+]([C@@H]3O[C@H](COP(=O)([O-])O)[C@@H](O)[C@H]3O)c1)c(=O)n2C [Compound 7P, ((2R,3 S,4R,5R)-3,4-dihydroxy-5-(3-((2-(3-methyl-2,6-dioxo-7-propyl-2,3,6,7-tetrahydro-1H-purin-1-yl)ethoxy)carbonyl)pyridin-1-ium-1-yl)tetrahydrofuran-2-yl)methyl hydrogen phosphate] | 1.9× @ 0.25 | 
2 | Cn1c(=O)c2c(ncn2CCOC(=O)c2ccc[n+]([C@@H]3O[C@H](CO)[C@@H](O)[C@H]3O)c2)n(C)c1=O.O=S(=O)([O-])C(F)(F)F [Compound 2, 1-((2R,3R,4S,5R)-3,4-dihydroxy-5-(hydroxymethyl)tetrahydrofuran-2-yl)-3-((2-(1,3-dimethyl-2,6-dioxo-1,2,3,6-tetrahydro-7H-purin-7-yl)ethoxy)carbonyl)pyridin-1-ium trifluoromethanesulfonate] |  | 2.9× @ 1
3 | Cn1c(=O)c2c(ncn2CC(=O)OCCCOC(=O)c2ccc[n+]([C@@H]3O[C@H](COP(=O)([O-])O)[C@@H](O)[C@H]3O)c2)n(C)c1=O [Compound 6P, ((2R,3S,4R,5R)-5-(3-((3-(2-(1,3-dimethyl-2,6-dioxo-1,2,3,6-tetrahydro-7H-purin-7-yl)acetoxy)propoxy)carbonyl)pyridin-1-ium-1-yl)-3,4-dihydroxytetrahydrofuran-2-yl)methyl hydrogen phosphate] | 2.0× @ 0.25 | 
4 | Cn1cnc2c1c(=O)n(CCCOC(=O)c1ccc[n+]([C@@H]3O[C@H](COP(=O)([O-])O)[C@@H](O)[C@H]3O)c1)c(=O)n2C [Compound 5P, ((2R,3S,4R,5R)-5-(3-((3-(3,7-dimethyl-2,6-dioxo-2,3,6,7-tetrahydro-1H-purin-1-yl)propoxy)carbonyl)pyridin-1-ium-1-yl)-3,4-dihydroxytetrahydrofuran-2-yl)methyl hydrogen phosphate] | 2.2× @ 0.25 | 

— US11878994B1, “Compositions for treatment of inflammation” (Metro International Biotech, LLC, priority 2021, dated 2024)
